Assay results from patent US20240294548A1, “TRICYCLIC SULTAMS AND SULFAMIDES AS ANTITUMOR AGENTS” (PELOTON THERAPEUTICS INC., priority 2021, published 2024).
Where two headings read alike, the source gives them in different places.

Experiments:
[1] = test system: HCT116 human colorectal carcinoma cells; assay: CellTiter-Glo assay (cell viability); format: cell-based; conditions: HCT-116, 72 h, read-out: CTG IC50
Method: HCT116 human colorectal carcinoma cells were used in these experiments. HCT116 cells were obtained from ATCC. CellTiter-Glo® Luminescent Cell Viability Assay Reagent was obtained from Promega.
About 3,000 cells were seeded into 96-well plate with 100 μL of media (DMEM supplemented with 10% FBS, 100 units penicillin, and […] streptomycin per mL) the day before the experiment. For compound treatment, the master plate was prepared as follows: 100× compound stocks were prepared in a 96-well plate by 1 to 3 serial dilutions of 0.5 mM DMSO stocks. Each master plate contained serial dilution of 8 compounds, including the control compound E7820. […] of 100× compound stock was added to each well of the assay plate to give final concentrations of […]. Each concentration was tested in triplicate. After 3 days, cell viability was determined using CellTiter-Glo Luminescent Cell Viability Assay Reagent following the manufacturer's recommended protocol. Briefly, […] of CellTiter-Glo reagent was added to each well of the assay plate and the contents were mixed for 3 minutes at 600 rpm on a shaker (Thermomixer R). The plate was immediately placed in a plate reader (Synergy 2) and the luminescence signal (0.5 second per well integration time) was determined. IC50 values were calculated using Dotmatics software.

[2] = biological target: T1, DCAF15 (DDA1-DDB1ΔB-DCAF15Δpro) (Homo sapiens, UniProt Q66K64, DEL276-383); assay: DCAF15 displacement assay (displacement FRET, probe PT7795); format: binding; conditions: displacement of PT7795 (300 nM), compound 0.01 to 100 μM, 18 hours incubation; read-out: DCAF15 displacement IC50
T1 construct: made in house; host or cells: Sf9 (Bac-to-Bac baculovirus)
Excerpt: (§1) Proteins used for the assays were as follows: Human DDA1 (UniProt:Q9BW61), DDB1 (UniPro: Q16531), and DCAF15 (UniProt: Q66K64) coding sequences were cloned into pFastBac1 vectors and were co-expressed in Sf9 cells using Bac-to-Bac baculovirus expression system (Thermo Fisher Scientific). The expression construct for DCAF15 includes a N-terminal His6-tag to facilitate the purification.
DCAF15 Displacement Assay (Displacement FRET KD)
Synthesis of the probe PT7795 is described in the article.
Binding of PT7795 to DDA1-DDB1AB-DCAF15Δpro was measured by the FRET signal between europium-labeled anti-His antibody (AD0205, Perkin Elmer) that is associated with His-tagged DCAF15 and ALX647 moiety in PT7795. […] After equilibrating for 2-3 hours at 4° C., the plate was removed from the incubator, briefly spun, then read on a Spark 10 (Tecan) at the excitation/emission wavelength of 340 nm/615 nm and 340 nm/665 nm.
Binding of compounds in this disclosure to DCAF15 was measured in a competition by the displacement of PT7795. The concentration of PT7795 was kept at 300 nM while the concentration of a compound was varied from 0.01 to 100 μM. The incubation time was increased to 18 hours for enhanced signal to noise level.
F=Fmin+(Fmax−Fmin)/(1+10^(logIC50−log[Compound])^n) (Equation 2)
The Kds can then be calculated from IC50s using Equation 3 (Cheng-Prusoff equation).

[3] = biological target: T2, DCAF15 RBM39 ternary complex (Homo sapiens, UniProt Q14498+Q66K64, DEL276-383); assay: DCAF15 RBM39 complex formation assay (FRET); format: biochemical; conditions: FRET ratio, 20 nM DDB1DB/DCAF15, 50 nM RBM39 R1R2, overnight at 4° C.; read-out: DCAF15 RBM39 ternary complex EC50
T2 construct: Amino acids 150 to 331 of RBM39 were cloned into pGEX4T3; GST (from the pGEX4T3 vector, own knowledge) followed by a TEV cleavage site (N); made in house; host or cells: Sf9 baculovirus (DDB1ΔB/DCAF15); E. coli (RBM39 R1R2)
T2 sequence (Q66K64 with tags, fused parts or gaps DEL276-383): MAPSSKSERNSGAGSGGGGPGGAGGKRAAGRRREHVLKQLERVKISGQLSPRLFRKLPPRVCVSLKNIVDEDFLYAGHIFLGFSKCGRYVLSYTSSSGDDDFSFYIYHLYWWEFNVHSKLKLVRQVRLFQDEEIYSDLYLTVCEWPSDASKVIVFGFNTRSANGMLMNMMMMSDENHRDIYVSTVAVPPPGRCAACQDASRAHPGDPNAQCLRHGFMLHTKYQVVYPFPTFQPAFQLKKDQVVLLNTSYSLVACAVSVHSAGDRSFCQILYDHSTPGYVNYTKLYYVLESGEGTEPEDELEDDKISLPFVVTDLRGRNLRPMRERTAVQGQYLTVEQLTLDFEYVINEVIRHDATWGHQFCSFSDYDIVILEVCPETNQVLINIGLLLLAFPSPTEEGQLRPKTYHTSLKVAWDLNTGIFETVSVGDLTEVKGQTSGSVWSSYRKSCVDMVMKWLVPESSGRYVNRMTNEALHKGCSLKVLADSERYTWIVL
T2 sequence (Q14498 150-331, stated change not applied): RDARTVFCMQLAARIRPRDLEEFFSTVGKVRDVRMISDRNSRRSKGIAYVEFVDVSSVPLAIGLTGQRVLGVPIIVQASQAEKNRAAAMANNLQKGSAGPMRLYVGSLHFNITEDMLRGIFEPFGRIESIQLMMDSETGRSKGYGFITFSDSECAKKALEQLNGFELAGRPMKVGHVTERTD
Excerpt: as §1
DCAF15 RBM39 Complex Formation Assay
LANCE Eu-W1024 Anti-6×His and SureLight Allophycocyanin-anti-FLAG antibodies were purchased from Perkin Elmer. Human DDB1DB and His-tagged DCAF15 were co-expressed in baculovirus/sf9 system. […] The His-tagged DCAF15 contains six histidine residues directly preceding the DCAF15 sequence without any linker. An RBM39 fragment containing RRM1 and RRM2 was expressed in E. coli.
A compound of the present disclosure in DMSO (2 μL) was transferred to a 384-well assay plate. Compound was added in 14 points, 3-fold serial dilution (1 μM to 0.6 pico molar) in DMSO. […] FRET assay buffer (25 mM HEPES, pH 7.5, 100 mM NaCl, […], 0.5 mM TCEP, 0.005% Tween-20, 0.2 nM Eu-W1024 Anti-6×His, 50 nM SureLight Allophycocyanin-anti-FLAG, 20 nM DDB1DB/DCAF15, 50 nM RBM39 R1R2) was added and the resulting solution was incubated overnight at 4° C. […] Low signal controls containing no compound and high signal controls containing 10 mM indisulam were measured for each plate.
EC50 values were calculated using Dotmatics template equation for 4-parameter fit.
Results are expressed as % formation using the following equation: […]

[4] = HCT116 cells, 3 days, CellTiter-Glo luminescence

IC50 [1, 4] [nM]	IC50 [2] [nM]	EC50 [3] [nM]	SMILES	IC50 [1] [nM]
4510	≥ 100000	263	O=S1(=O)NCc2nc(Cl)c3c(Cl)c[nH]c3c2N1 [Compound 31, 6,7-dichloro-1,3,4,9-tetrahydropyrrolo[2′,3′:4,5]pyrido[3,2-c][1,2,6]thiadiazine 2,2-dioxide]	–
121	410	1.3	O=S1(=O)Nc2c(cc(Cl)c3c(Cl)c[nH]c23)CN1CC1CCOC1 (stereo not drawn) [Compound 86, 6,7-dichloro-3-((tetrahydrofuran-3-yl)methyl)-1,3,4,9-tetrahydro-[1,2,6] thiadiazino[4,3-g]indole 2,2-dioxide]	–
298	588	0.7	O=S1(=O)Nc2c(cc(Cl)c3c(Cl)c[nH]c23)CN1Cc1cccnn1 [Compound 42, 6,7-dichloro-3-(pyridazin-3-ylmethyl)-1,3,4,9-tetrahydro-[1,2,6]thiadiazino[4,3-g]indole 2,2-dioxide]	–
5000	14900	46.2	N#Cc1c[nH]c2c3c(cc(Cl)c12)CNS(=O)(=O)N3 [Compound 58, 6-chloro-1,3,4,9-tetrahydro-[1,2,6]thiadiazino[4,3-g]indole-7-carbonitrile 2,2-dioxide]	–
254	569	1.2	Nc1cccc(CN2Cc3cc(Cl)c4c(Cl)c[nH]c4c3NS2(=O)=O)c1 [Compound 76, 3-(3-aminobenzyl)-6,7-dichloro-1,3,4,9-tetrahydro-[1,2,6] thiadiazino[4,3-g]indole 2,2-dioxide]	–
3160	3340	6.2	COCCN1Cc2cc(Cl)c3c(C#N)c[nH]c3c2NS1(=O)=O [Compound 8, 6-chloro-3-(2-methoxyethyl)-1,3,4,9-tetrahydro-[1,2,6] thiadiazino[4,3-g]indole7-carbonitrile 2,2-dioxide]	–
351	328	1	O=S1(=O)Nc2c(cc(Cl)c3c(Cl)c[nH]c23)CN1Cc1ccnc(Cl)c1 [Compound 63, 6,7-dichloro-3-((2-chloropyridin-4-yl)methyl)-1,3,4,9-tetrahydro-[1,2,6] thiadiazino[4,3-g]indole 2,2-dioxide]	–
393	390	0.4	CC(=O)N1CC(CN2Cc3cc(Cl)c4c(Cl)c[nH]c4c3NS2(=O)=O)C1 [Compound 47, 1-(3-((6,7-dichloro-2,2-dioxido-4,9-dihydro-[1,2,6]thiadiazino[4,3-g]indol-3(1H)-yl)methyl)azetidin-1-yl) ethan-1-one]	–
269	4120	1.9	O=S1(=O)Nc2c(cc(Cl)c3c(Cl)c[nH]c23)CN1CCCC(F)(F)F [Compound 32, 6,7-dichloro-3-(4,4,4-trifluorobutyl)-1,3,4,9-tetrahydro-[1,2,6] thiadiazino[4,3-g]indole 2,2-dioxide]	–

Continued, compound first:

SMILES	IC50 [1, 4] [nM]	IC50 [2] [nM]	EC50 [3] [nM]	IC50 [1] [nM]
O=S1(=O)Nc2c(cc(Cl)c3c(Cl)c[nH]c23)CN1Cc1ccc(F)cc1 [Compound 69, 6,7-dichloro-3-(4-fluorobenzyl)-1,3,4,9-tetrahydro-[1,2,6] thiadiazino[4,3-g]indole 2,2-dioxide]	1200	7560	3.9	–
O=S1(=O)Nc2c(cc(Cl)c3c(Cl)c[nH]c23)CN1CC1CCNCC1 [Compound 39, 6,7-dichloro-3-(piperidin-4-ylmethyl)-1,3,4,9-tetrahydro-[1,2,6]thiadiazino[4,3-g]indole 2,2-dioxide]	4990	285	1.2	–
O=S1(=O)Nc2c(cc(Cl)c3c(Cl)c[nH]c23)CN1Cc1ccc(C(F)F)nc1 [Compound 53, 6,7-dichloro-3-((6-(difluoromethyl)pyridin-3-yl)methyl)-1,3,4,9-tetrahydro-[1,2,6]thiadiazino [4,3-g]indole 2,2-dioxide]	394	4280	3.4	–
O=S1(=O)Nc2c(cc(Cl)c3c(Cl)c[nH]c23)CN1Cc1ccncn1 [Compound 52, 6,7-dichloro-3-(pyrimidin-4-ylmethyl)-1,3,4,9-tetrahydro-[1,2,6] thiadiazino[4,3-g]indole 2,2-dioxide]	93.7	580	0.6	–
O=S1(=O)Nc2c(cc(Cl)c3c(Cl)c[nH]c23)CN1Cc1cccc(F)c1 [Compound 75, 6,7-dichloro-3-(3-fluorobenzyl)-1,3,4,9-tetrahydro-[1,2,6] thiadiazino[4,3-g]indole 2,2-dioxide]	850	4320	2.3	–
COCCN1Cc2cc(C)c3c(Cl)c[nH]c3c2NS1(=O)=O [Compound 87, 7-chloro-3-(2-methoxyethyl)-6-methyl-1,3,4,9-tetrahydro-[1,2,6] thiadiazino[4,3-g]indole 2,2-dioxide]	258	6220	1.8	–
O=S1(=O)CCc2cc(Cl)c3c(Cl)c[nH]c3c2N1 [Compound 5, 6,7-dichloro-1,3,4,9-tetrahydro-[1,2]thiazino[4,3-g]indole 2,2-dioxide]	789	20000	11	–
Nc1ccccc1CN1Cc2cc(Cl)c3c(Cl)c[nH]c3c2NS1(=O)=O [Compound 74, 3-(2-aminobenzyl)-6,7-dichloro-1,3,4,9-tetrahydro-[1,2,6] thiadiazino[4,3-g]indole 2,2-dioxide]	171	301	1.3	–
COCC[C@H]1Cc2cc(Cl)c3c(Cl)c[nH]c3c2NS1(=O)=O (single isomer, unassigned) [Compound 29]	555	50500	1.9	–
O=S1(=O)Nc2c(cc(Cl)c3c(Cl)c[nH]c23)CN1Cc1cccc(O)c1 [Compound 73, 6,7-dichloro-3-(3-hydroxybenzyl)-1,3,4,9-tetrahydro-[1,2,6] thiadiazino[4,3-g]indole 2,2-dioxide]	418	1650	1.3	–
Cc1ccncc1CN1Cc2cc(Cl)c3c(Cl)c[nH]c3c2NS1(=O)=O [Compound 55, 6,7-dichloro-3-((4-methylpyridin-3-yl)methyl)-1,3,4,9-tetrahydro-[1,2,6] thiadiazino[4,3-g]indole 2,2-dioxide]	108	174	1.7	–
O=S1(=O)Nc2c(cc(Cl)c3c(Cl)c[nH]c23)CN1CC1COC1 [Compound 34, 6,7-dichloro-3-(oxetan-3-ylmethyl)-1,3,4,9-tetrahydro-[1,2,6]thiadiazino[4,3-g]indole 2,2-dioxide]	–	689	1.8	126
